This is an account of results in patent US9694006B2, “Use of pyrroloquinoline compounds to kill clinically latent microorganisms” (HELPERBY THERAPEUTICS LIMITED, priority 2005, dated 2017).

Test [1] has as its system Staph. aureus stationary phase bacteria. Put plainly: Bactericidal activity against stationary-phase cultures (CFU counts), Staph. aureus. Type of test: cell-based, Staphylococcus aureus. The following applies: 5 μg/mL of test compound.
Test [2] concerns E. coli persister bacteria. Put plainly: Bactericidal activity against persistent bacteria (CFU counts), E. coli. Particulars: 25 μg/mL of test compound.

On to `COc1cc(OC)c2nc(C)c3c(c2c1)N(c1cccc(Oc2ccccc2)c1)CC3.O=C(O)C(F)(F)F` [Example 1(a), 6,8-Dimethoxy-4-methyl-1-(3-phenoxyphenyl)-2,3-dihydro-1H-pyrrolo[3,2-c]quinoline trifluoroacetate], for which the log kill in test [1] is reported as 3.55.
In test [2], `Cc1nc2ccc(Oc3ccccc3)cc2c2c1CCN2Cc1ccccc1` [Example 1(h), 1-Benzyl-4-methyl-8-phenoxy-2,3-dihydro-1H-pyrrolo[3,2-c]quinoline] displayed a log kill of 3.83.
